From ChEMBL document CHEMBL1201862, “PubChem BioAssay data set” (2004) come the findings set out here.

Active and inactive are the calls of the source.

A short description of test [1]: ARNT/TACC3 interaction disruptors, potency, confirmation, biochemical, AlphaScreen, cherry-picked samples (AID 651703).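 Note: His-tagged ARNT PAS-B domain paired with GST-TACC3 E629A dimer coactivator fragment; potency of inhibitors that break up the complex and lower AlphaScreen signal.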 The class given is functional, Homo sapiens. On the technique in general: In Alpha technology, singlet oxygen from a donor bead excites a nearby acceptor bead.
The target in a further test is T1, Exodeoxyribonuclease V (Escherichia coli (strain K12), UniProt P04993+P07648+P08394).
T1 sequence (P04993 whole entry): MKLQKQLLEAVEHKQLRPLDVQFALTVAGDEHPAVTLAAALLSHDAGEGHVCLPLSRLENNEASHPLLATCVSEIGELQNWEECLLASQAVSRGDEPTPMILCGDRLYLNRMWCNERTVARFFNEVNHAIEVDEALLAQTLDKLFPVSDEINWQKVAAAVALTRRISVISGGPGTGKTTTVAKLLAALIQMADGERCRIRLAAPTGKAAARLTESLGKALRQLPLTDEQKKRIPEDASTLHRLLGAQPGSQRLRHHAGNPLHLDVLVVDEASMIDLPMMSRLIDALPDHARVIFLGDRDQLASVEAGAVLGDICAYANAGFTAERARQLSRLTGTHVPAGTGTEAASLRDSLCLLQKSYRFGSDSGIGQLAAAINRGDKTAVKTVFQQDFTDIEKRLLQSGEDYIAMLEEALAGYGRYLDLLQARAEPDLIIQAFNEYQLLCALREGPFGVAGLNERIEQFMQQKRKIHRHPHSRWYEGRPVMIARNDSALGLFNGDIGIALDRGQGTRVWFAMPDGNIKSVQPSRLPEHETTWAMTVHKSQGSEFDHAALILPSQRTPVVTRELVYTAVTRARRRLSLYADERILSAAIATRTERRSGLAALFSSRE
T1 sequence (P07648 whole entry): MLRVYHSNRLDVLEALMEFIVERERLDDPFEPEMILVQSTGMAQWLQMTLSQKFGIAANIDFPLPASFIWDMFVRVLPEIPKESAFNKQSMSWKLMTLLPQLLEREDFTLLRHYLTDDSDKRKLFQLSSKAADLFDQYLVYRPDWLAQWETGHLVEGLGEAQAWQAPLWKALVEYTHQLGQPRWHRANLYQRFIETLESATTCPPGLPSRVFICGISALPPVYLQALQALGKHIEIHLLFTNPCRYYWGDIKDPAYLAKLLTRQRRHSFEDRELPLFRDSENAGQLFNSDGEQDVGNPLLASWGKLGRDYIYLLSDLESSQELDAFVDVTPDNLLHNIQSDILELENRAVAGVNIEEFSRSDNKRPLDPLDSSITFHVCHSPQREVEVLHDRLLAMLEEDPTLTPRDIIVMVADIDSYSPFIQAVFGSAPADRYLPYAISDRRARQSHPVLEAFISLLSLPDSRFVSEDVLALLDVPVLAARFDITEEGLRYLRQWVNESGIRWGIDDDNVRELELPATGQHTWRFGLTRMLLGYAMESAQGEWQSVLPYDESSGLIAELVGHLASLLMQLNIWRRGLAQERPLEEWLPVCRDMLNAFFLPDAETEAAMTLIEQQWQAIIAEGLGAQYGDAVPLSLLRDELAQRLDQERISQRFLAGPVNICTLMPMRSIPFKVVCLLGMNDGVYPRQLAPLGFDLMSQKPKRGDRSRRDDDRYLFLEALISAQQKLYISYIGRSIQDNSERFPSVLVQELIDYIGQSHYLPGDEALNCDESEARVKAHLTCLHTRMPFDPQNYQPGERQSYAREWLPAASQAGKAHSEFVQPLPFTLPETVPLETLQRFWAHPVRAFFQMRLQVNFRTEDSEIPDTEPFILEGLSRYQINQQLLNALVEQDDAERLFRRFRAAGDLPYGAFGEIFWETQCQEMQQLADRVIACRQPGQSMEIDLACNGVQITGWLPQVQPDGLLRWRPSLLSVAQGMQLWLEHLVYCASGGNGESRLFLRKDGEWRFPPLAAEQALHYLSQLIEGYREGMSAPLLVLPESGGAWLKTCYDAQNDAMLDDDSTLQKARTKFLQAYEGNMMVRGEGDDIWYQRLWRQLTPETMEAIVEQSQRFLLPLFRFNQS
T1 sequence (P08394 whole entry): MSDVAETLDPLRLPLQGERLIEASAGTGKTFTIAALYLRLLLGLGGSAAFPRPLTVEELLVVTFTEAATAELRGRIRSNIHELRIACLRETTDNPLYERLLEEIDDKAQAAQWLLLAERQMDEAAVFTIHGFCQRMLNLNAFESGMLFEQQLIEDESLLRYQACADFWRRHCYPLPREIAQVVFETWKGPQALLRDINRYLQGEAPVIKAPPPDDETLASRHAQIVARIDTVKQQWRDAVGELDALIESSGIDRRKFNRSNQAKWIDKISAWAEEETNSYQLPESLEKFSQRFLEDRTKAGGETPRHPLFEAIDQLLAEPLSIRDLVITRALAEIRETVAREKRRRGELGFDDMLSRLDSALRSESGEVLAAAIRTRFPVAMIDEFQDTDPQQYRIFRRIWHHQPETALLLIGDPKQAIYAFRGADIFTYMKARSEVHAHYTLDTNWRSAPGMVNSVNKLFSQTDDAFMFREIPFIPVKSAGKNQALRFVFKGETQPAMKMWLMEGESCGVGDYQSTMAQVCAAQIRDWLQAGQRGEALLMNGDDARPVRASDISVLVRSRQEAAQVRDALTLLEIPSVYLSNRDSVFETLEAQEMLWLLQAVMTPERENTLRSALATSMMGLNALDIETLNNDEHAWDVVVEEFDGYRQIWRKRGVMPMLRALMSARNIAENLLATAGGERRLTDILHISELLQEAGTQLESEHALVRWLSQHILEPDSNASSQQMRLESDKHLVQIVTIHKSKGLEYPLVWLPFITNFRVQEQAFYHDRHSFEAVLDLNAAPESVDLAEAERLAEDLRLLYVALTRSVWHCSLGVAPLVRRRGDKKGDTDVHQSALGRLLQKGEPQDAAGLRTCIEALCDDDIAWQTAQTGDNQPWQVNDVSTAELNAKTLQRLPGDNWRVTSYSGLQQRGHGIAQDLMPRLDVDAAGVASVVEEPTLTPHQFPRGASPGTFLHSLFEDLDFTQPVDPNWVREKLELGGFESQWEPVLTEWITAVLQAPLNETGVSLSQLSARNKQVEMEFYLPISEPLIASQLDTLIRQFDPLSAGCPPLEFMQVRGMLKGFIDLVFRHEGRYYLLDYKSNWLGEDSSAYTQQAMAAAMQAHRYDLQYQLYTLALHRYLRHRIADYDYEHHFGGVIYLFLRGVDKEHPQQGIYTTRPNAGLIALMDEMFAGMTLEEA
Briefly: E. coli RecBCD inhibitors, dose response, counter-screen for AddAB inhibitor project, absorbance, V66 E. coli, mutant T4 phage (AID 492957). The test is classed as functional, cell-based, Escherichia coli str. K-12 substr. MG1655. (In general: Counterscreens check selectivity or assay interference.)

In test [2] the target is MAP kinase-activated protein kinase 5 (Homo sapiens, UniProt Q8IW41). The test is classed as functional.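 Note: measured as one member of a kinome panel.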
MAP kinase-activated protein kinase 5, sequence (Q8IW41 whole entry): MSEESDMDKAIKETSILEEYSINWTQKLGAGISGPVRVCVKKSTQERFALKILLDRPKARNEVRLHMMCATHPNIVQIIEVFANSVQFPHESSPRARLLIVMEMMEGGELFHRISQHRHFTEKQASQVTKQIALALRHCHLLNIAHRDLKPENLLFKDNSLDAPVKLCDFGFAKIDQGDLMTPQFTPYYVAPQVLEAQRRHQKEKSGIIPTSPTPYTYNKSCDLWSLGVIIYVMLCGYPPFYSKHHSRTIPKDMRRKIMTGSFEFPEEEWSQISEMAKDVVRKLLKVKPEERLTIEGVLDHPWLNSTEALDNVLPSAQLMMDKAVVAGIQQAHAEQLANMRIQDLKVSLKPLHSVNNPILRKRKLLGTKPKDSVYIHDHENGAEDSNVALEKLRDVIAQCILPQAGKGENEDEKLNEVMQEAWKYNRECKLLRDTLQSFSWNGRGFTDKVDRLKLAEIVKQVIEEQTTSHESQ
In test [3] the target is Calcium/calmodulin-dependent protein kinase type II subunit gamma (Homo sapiens, UniProt Q13555). The test is classed as functional.
Calcium/calmodulin-dependent protein kinase type II subunit gamma, sequence (Q13555 whole entry): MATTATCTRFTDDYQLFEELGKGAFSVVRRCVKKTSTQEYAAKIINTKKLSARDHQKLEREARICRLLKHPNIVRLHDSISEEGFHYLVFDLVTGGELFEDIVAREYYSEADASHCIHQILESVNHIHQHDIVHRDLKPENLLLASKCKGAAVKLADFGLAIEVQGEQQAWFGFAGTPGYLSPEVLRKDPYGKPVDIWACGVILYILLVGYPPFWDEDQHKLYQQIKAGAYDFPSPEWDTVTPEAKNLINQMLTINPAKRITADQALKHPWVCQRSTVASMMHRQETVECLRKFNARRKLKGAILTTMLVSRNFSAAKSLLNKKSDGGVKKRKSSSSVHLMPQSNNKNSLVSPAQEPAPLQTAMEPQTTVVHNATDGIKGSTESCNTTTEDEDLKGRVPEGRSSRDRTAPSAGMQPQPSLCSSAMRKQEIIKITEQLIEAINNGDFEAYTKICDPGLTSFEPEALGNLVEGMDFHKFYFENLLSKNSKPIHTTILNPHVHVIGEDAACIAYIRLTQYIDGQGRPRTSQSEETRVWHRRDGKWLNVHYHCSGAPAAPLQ
Test [4] has as its target Serine/threonine-protein kinase BRSK1 (Homo sapiens, UniProt Q8TDC3). The class given is functional.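 Note: measured within a kinome-wide kinase panel, with the target listed as KIAA1811.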

Serine/threonine-protein kinase BRSK1, sequence (Q8TDC3 whole entry): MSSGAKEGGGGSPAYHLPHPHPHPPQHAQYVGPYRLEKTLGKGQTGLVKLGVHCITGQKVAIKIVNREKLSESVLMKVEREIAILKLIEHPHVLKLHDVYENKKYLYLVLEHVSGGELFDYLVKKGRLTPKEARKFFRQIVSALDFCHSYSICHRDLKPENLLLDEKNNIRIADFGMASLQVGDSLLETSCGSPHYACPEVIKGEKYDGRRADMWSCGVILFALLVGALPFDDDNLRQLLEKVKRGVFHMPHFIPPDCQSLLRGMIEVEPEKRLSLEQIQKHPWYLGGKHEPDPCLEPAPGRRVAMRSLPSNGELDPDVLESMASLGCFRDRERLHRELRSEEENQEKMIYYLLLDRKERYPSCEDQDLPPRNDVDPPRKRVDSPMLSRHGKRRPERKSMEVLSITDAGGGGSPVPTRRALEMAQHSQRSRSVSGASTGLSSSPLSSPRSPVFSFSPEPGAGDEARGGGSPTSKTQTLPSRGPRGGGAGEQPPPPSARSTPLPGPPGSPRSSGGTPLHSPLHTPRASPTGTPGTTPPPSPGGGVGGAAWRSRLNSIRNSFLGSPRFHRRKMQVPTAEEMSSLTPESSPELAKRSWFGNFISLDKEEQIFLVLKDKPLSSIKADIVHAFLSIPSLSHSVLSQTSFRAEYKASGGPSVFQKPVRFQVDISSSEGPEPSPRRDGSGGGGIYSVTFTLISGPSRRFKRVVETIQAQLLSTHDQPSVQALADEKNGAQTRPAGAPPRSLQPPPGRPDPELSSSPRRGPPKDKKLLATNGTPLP

What is called AC50 is the concentration at which the activity in the assay is half-maximal. For the molecule `O=C(COC(=O)c1ccc([N+](=O)[O-])s1)NCCc1ccccc1`, the half-maximal activity concentration (AC50) in test [1] was 83700 nM (active).
For orientation: IC50 means the midpoint of a concentration-inhibition curve. Turning to `COCC/N=c1\scc(-c2cccs2)n1/N=C/c1ccc(O)c(O)c1O`, the IC50 on Exodeoxyribonuclease V is > 119000 nM (inactive).
As a reminder, the Ki is the dissociation constant of the complex between target and ligand, obtained from inhibition or displacement. For `OC1CCC(Nc2cc(Cl)nc(-c3c[nH]c4ncccc34)n2)CC1` (stereo not given), the Ki was > 1580 nM (inactive) in test [2], 794 nM (active) in test [3] and 1260 nM (active) in test [4].
